In US20200338045A1, “ISOINDOLINE COMPOSITIONS AND METHODS FOR TREATING NEURODEGENERATIVE DISEASE” (priority 2017, published 2020):

System: CSF proteins
Experiment: LC/MSMS protein expression in CSF (COG0102)
Type: in vivo, human
Description: Plasma and CSF protein expression were measured by LC/MSMS in samples drawn prior to dosing (Day 0) and at end of dosing (Day 28) and were compared within each patient and between dosing groups.
This trial (ClinicalTrials.gov NCT02907567) was a randomized, double-blind, placebo-controlled clinical trial in mild to moderate Alzheimer's patients (MMSE 18-26) (See FIG. 1 for clinical trial design). The trial was conducted at six sites in Australia. Patients were randomized into placebo (n=5) or CT1812-treated groups: 90 mg (n=4), 280 mg (n=5) or 560 mg (n=5) and treated once daily for 28 days. Clinical chemistry was done at Sydpath (Sydney, AU). Pharmacokinetics were done at CPR Pharma Services (Adelaide, AU). Cerebrospinal fluid samples were taken at screening and day 21-28 of treatment and aliquoted. Plasma samples were taken at screening or Day 1 (one sample) and day 14-28, then spun down to separate plasma and aliquoted. One set of CSF samples was analyzed for Alzheimer's disease biomarkers; protein measurements (Aβ42, A1340, total tau, tau phosphorylated at threonine 181 (phosphorylated tau), NFL and neurogranin) were performed using commercially available ELISA assays from Fujirebio according to the manufacturer's instructions (INNOTEST β-AMYLOID(1-42), INNOTEST β-AMYLOID(1-40), INNOTEST hTau Ag, INNOTEST PHOSPHO-TAU(181P), Uman Diagnostics NFL assay). Neurogranin was measured with a sandwich ELISA method using antibodies Ng2 and Ng22 developed at the University of Gotteborg (Kvartsberg et al. 2015). Identical aliquots of CSF, and plasma were analyzed for protein expression changes via LC/MSMS at Caprion (see below).
Matched screening and day 28 plasma and CSF samples were analyzed by LC/MSMS at Caprion Biosciences Inc. Plasma was depleted of high and medium abundance proteins using a commercial immunoaffinity column, IgY14-Supermix (Sigma). CSF was depleted of only 14 high abundance proteins using MARS-14 (Agilent). All samples were digested with trypsin and plasma samples were fractionated by strong cation exchange chromatography (3 fractions). Both CSF and plasma samples were analyzed using a NanoAcquity UPLC coupled to a Q Exactive MS. […] The 12 most intense peaks per survey scan with charge states 2-8 fragmented and scanned with a mass range from 200 to 2000 m/z at a resolution of 17,500. Raw spectrometer data files for each LC-MS run were aligned independently using Elucidator software (Rosetta Biosoftware). The MS/MS spectra were matched to corresponding peptide sequences found in the Uniprot Human protein database (January 2017) using Mascot software, allowing for up to 2 missed cleavages, a peptide tolerance of 20 ppm, and an MS/MS tolerance of 0.05 Da. Outlier detection was performed by determining the average log-intensity of all isotope groups (IG) over injection order for all samples. Samples with an average value greater than 2 standard deviations from the mean were flagged for investigation. Following data transformation and normalization, expression analysis of the identified isotope groups was performed and the statistical significance of each comparison was assessed with a parametric, linear mixed model (LMM) and a non-parametric Wilcoxon ranked test (ranked p-values). Expression analysis was also performed at the peptide and protein levels, which used the same methodology as above, but applied to peptide/protein intensities, derived by rolling-up the corresponding isotope group intensities. Isotope groups not detected in at least half of the samples in either of the two groups being compared were not used for the roll-up.
Table 5 lists 30 proteins that were detected with at least 20% change in placebo vs. treated 28 days vs screening. The following values are reported for each statistical analysis performed: FC: Fold change calculated from the protein normalized intensity. FC>10 or <0.1 are unusually large and may be artifacts. […]

[1] = 28 days vs screening, fold change

CC(C)(C)Oc1cc(CCC(C)(C)N2Cc3ccc(S(C)(=O)=O)cc3C2)ccc1O [CT1812]
Afamin, % change treated vs placebo: −19% | B3GNT9, % change treated vs placebo: 65% | CD14, % change treated vs placebo: 20% | Contactin 1, % change treated vs placebo: −23% | EphA4, % change treated vs placebo: −7% | FLNA, % change treated vs placebo: −51% | PDIA1, % change treated vs placebo: 21% | PDIA6, % change treated vs placebo: 44% | ROBO4, % change treated vs placebo: 62% | SERPINA4, % change treated vs placebo: −26% | Synaptotagmin, % change treated vs placebo: −59% | Tenascin C, % change treated vs placebo: −10% | Synaptotagmin-1 expression decreased, CT1812-treated vs. placebo (28 days): 63% | AFM, FC (Treated) [1]: 0.94 | ANGPTL2, FC (Treated) [1]: 0.80 | CAMK2D, FC (Treated) [1]: 1.04 | CD14, FC (Treated) [1]: 1.18 | CNTN1, FC (Treated) [1]: 0.97 | EFNB1, FC (Treated) [1]: 0.97 | EPHA4, FC (Treated) [1]: 0.94 | FGFR3, FC (Treated) [1]: 1.12 | GMFB, FC (Treated) [1]: 1.04 | GNPTG, FC (Treated) [1]: 1.18 | HLA-H, FC (Treated) [1]: 1.22 | ICAM2, FC (Treated) [1]: 1.11 | LILRB4, FC (Treated) [1]: 1.11 | MBL2, FC (Treated) [1]: 0.75 | MDGA2, FC (Treated) [1]: 1.01 | NPPC, FC (Treated) [1]: 0.90 | P4HB, FC (Treated) [1]: 1.10 | PDGFA, FC (Treated) [1]: 1.15 | PDIA6, FC (Treated) [1]: 1.15 | RBP4, FC (Treated) [1]: 0.82 | ROBO1, FC (Treated) [1]: 0.96 | ROBO4, FC (Treated) [1]: 1.22 | SAA4, FC (Treated) [1]: 1.17 | SEMA3F, FC (Treated) [1]: 1.40 | SERPINA4, FC (Treated) [1]: 0.88 | SMPDL3B, FC (Treated) [1]: 0.97 | SYT1, FC (Treated) [1]: 0.78 | TNC, FC (Treated) [1]: 1.04 | TPI1, FC (Treated) [1]: 0.90 | YWHAB, FC (Treated) [1]: 0.90 | AFM, FC (Treated vs. Placebo) (28 days, fold change): 0.84 | ANGPTL2, FC (Treated vs. Placebo) (28 days, fold change): 0.69 | CAMK2D, FC (Treated vs. Placebo) (28 days, fold change): 1.22 | CD14, FC (Treated vs. Placebo) (28 days, fold change): 1.20 | CNTN1, FC (Treated vs. Placebo) (28 days, fold change): 0.81 | EFNB1, FC (Treated vs. Placebo) (28 days, fold change): 0.93 | EPHA4, FC (Treated vs. Placebo) (28 days, fold change): 0.93 | FGFR3, FC (Treated vs. Placebo) (28 days, fold change): 1.83 | GMFB, FC (Treated vs. Placebo) (28 days, fold change): 1.41 | GNPTG, FC (Treated vs. Placebo) (28 days, fold change): 1.26 | HLA-H, FC (Treated vs. Placebo) (28 days, fold change): 1.37 | ICAM2, FC (Treated vs. Placebo) (28 days, fold change): 1.23 | LILRB4, FC (Treated vs. Placebo) (28 days, fold change): 1.25 | MDGA2, FC (Treated vs. Placebo) (28 days, fold change): 0.71 | NPPC, FC (Treated vs. Placebo) (28 days, fold change): 0.91 | P4HB, FC (Treated vs. Placebo) (28 days, fold change): 1.21 | PDGFA, FC (Treated vs. Placebo) (28 days, fold change): 1.27 | PDIA6, FC (Treated vs. Placebo) (28 days, fold change): 1.44 | RBP4, FC (Treated vs. Placebo) (28 days, fold change): 0.81 | ROBO1, FC (Treated vs. Placebo) (28 days, fold change): 0.82 | ROBO4, FC (Treated vs. Placebo) (28 days, fold change): 1.62 | SAA4, FC (Treated vs. Placebo) (28 days, fold change): 1.35 | SEMA3F, FC (Treated vs. Placebo) (28 days, fold change): 1.58 | SERPINA4, FC (Treated vs. Placebo) (28 days, fold change): 0.79 | SMPDL3B, FC (Treated vs. Placebo) (28 days, fold change): 1.24 | SYT1, FC (Treated vs. Placebo) (28 days, fold change): 0.63 | TNC, FC (Treated vs. Placebo) (28 days, fold change): 0.91 | TPI1, FC (Treated vs. Placebo) (28 days, fold change): 0.87 | YWHAB, FC (Treated vs. Placebo) (28 days, fold change): 0.81 | MBL2, FC (Treated vs. Placebo) (28 days, fold change, FC>10 may be artifacts): >10 | Afamin, With CT1812 (direction of change): significantly decreased and ↓* | B3GNT9, With CT1812 (direction of change): dose dependently increased and ↑ | CD14, With CT1812 (direction of change): significantly increased and ↑* | Contactin 1, With CT1812 (direction of change): significantly reduced and ↓* | EphA4, With CT1812 (direction of change): ↓* | FLNA, With CT1812 (direction of change): trend for reduction and ↓ | PDIA1, With CT1812 (direction of change): significantly increased and ↑* | PDIA6, With CT1812 (direction of change): significantly increased and ↑* | ROBO4, With CT1812 (direction of change): ↑* | SERPINA4, With CT1812 (direction of change): significantly reduced and ↓* | Synaptotagmin, With CT1812 (direction of change): significantly decreased and reduction and decreased and ↓* | Tenascin C, With CT1812 (direction of change): ↓* | Afamin, % change baseline treated (treated group vs baseline): −7% | B3GNT9, % change baseline treated (treated group vs baseline): 55% | CD14, % change baseline treated (treated group vs baseline): 18% | Contactin 1, % change baseline treated (treated group vs baseline): −3% | EphA4, % change baseline treated (treated group vs baseline): −6% | FLNA, % change baseline treated (treated group vs baseline): −26% | PDIA1, % change baseline treated (treated group vs baseline): 10% | PDIA6, % change baseline treated (treated group vs baseline): 15% | ROBO4, % change baseline treated (treated group vs baseline): 22% | SERPINA4, % change baseline treated (treated group vs baseline): −13% | Synaptotagmin, % change baseline treated (treated group vs baseline): −28% | Tenascin C, % change baseline treated (treated group vs baseline): 4%
